{"source": "patent US20220125777A1", "about": "“COMBINATION OF A CDK INHIBITOR AND A PIM INHIBITOR” (Pfizer Inc., priority 2019, published 2022)", "tested_on": "HR+/HER2− advanced or metastatic breast cancer", "test": "Study 2: progression-free survival by PIM2 mRNA expression, palbociclib plus fulvestrant vs placebo plus fulvestrant", "type": "in vivo, human", "conditions": "Study 2, control arm, fulvestrant alone (placebo plus fulvestrant 500 mg IM); FIG. 2A", "procedure": "Study 2 was conducted in HR+/HER2− advanced or metastatic breast cancer (MBC) patients who had progressed on prior endocrine therapy. Pre- and peri-menopausal subjects were given an LHRH agonist. Subjects were treated with palbociclib (125 mg QD, 3/1 schedule) plus fulvestrant (500 mg IM on Days 1 and 15 of Cycle 1, and then Day 1 of each subsequent 28-day cycle) or placebo (3/1 schedule QD) plus fulvestrant on the same schedule. In both studies, the primary outcome was PFS as assessed by the investigator.\nTumor samples were analyzed to identify potential predictive biomarkers for palbociclib plus letrozole treatment. Using the EdgeSeq Oncology BM Panel, mRNA expression was assessed for 2534 cancer-related genes. […] Targeted capture sequencing was used to quantitate RNA expression levels of gene targets. […]\nThe primary outcome was PFS as assessed by the investigator.\nTumor samples were analyzed by EdgeSeq Oncology BM Panel (HTG Molecular Diagnostics; https://www.htgmolecular.com/assays/obp) for mRNA expression assessment of 2534 cancer-related genes. […]\nThe EdgeSeq system used was validated and used targeted capture sequencing to quantitate RNA expression levels of gene targets in formalin-fixed paraffin-embedded tumor tissues. […]"}
{"smiles": "C[C@]12CC[C@@H]3c4ccc(O)cc4C[C@@H](CCCCCCCCC[S+]([O-])CCCC(F)(F)C(F)(F)F)[C@H]3[C@@H]1CC[C@@H]2O", "note": "(stereo partly shown) [fulvestrant]", "values": [{"measurement": "PFS of subjects having low PIM2 expression versus higher PIM2 expression", "result": "shorter PFS"}]}
